In brackets after ≈: the same amount, converted by molar mass.
Assays:
[1] = biological target: T1, α-glucosidase (Sigma G-5003) (Saccharomyces cerevisiae, UniProt P53341); assay: α-Glucosidase inhibitory activity (p-nitrophenyl-α-D-glucopyranoside hydrolysis); assay type: biochemical; conditions: for IC50 / IC50 (α-glucosidase inhibitory activity): 37° C., 15 minutes, pH 6.8, 0.7 mM p-nitrophenyl-α-D-glucopyranoside
T1 construct: purchased Sigma G-5003
Description: Forty μl of α-glucosidase (Sigma G-5003, #11 U/mg protein) (0.1 mg/ml in 100 mM phosphate buffer, pH 6.8=[…]) for tests (or the buffer for the control), 950 μl of 0.7 mM p-nitrophenyl-α-D-glucopyranoside (Sigma N1377), and 10 μl of the assay compound (various concentrations dissolved in DMSO) were mixed and incubated at 37° C. for 15 minutes. To the reaction mixture, 1.0 ml of 0.2N NaOH and then 1.0 ml of n-butanol were added and voltex-mixed. […] IC50 was determined from a standard curve of p-nitrophenol released when the assay was run without the test compound (0% inhibition) and when the assay was run without the enzyme (100% inhibition).

mouse melanoma B16 cells = assay: cells; conditions: B16, read-out: cytotoxic activity IC50

T1 sequence (P53341 whole entry): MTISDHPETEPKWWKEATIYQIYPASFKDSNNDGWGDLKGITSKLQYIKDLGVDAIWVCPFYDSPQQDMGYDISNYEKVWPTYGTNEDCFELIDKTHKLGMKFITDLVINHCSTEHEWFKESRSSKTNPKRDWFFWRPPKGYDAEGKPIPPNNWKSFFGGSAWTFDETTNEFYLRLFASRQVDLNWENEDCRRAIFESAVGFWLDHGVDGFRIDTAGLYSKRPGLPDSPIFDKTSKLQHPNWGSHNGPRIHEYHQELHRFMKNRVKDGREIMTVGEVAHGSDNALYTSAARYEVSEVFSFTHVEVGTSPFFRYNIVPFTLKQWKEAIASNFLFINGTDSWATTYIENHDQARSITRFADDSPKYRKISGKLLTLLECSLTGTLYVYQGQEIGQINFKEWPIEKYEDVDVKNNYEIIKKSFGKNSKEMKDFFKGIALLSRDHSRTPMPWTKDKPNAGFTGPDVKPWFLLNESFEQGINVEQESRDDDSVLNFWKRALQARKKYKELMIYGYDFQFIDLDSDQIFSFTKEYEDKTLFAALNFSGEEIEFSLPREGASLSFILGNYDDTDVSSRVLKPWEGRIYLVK

SMILES	IC50 [1] [µM]	α-glucosidase inhibitory activity (in words) [1]	IC50 (α-glucosidase inhibitory activity) [1] [µg/mL]	IC50 (mouse melanoma B16 cells) [µg/mL]
COc1cc(O)c2c(c1)C(=O)c1c(O)c3c(c(OC)c1C2=O)C(O)C(O)c1cc(C)c(C(=O)NC(C)C(=O)O)c(O)c1-3 (stereo not drawn) [Benanomicin C, benanomicin C]	107	–	–	–
COc1cc(O)c2c(c1)C(=O)c1c(cc3c(c1O)-c1c(cc(C)c(C(=O)N[C@H](CO)C(=O)O)c1O)[C@H](O[C@@H]1O[C@H](C)[C@H](N(C)C)[C@H](O[C@@H]4OC[C@@H](O)[C@H](O)[C@H]4O)[C@H]1O)[C@H]3O)C2=O [N,N-dimethylpradimicin FA-2]	–	no α-glucosidase inhibitory activity	> 100	–
CNC1C(C)OC(OC2c3cc(C)c(C(=O)NC(C)C(=O)O)c(O)c3-c3c(cc4c(c3O)C(=O)c3cc(OC)cc(O)c3C4=O)C2O)C(O)C1OC1OCC(O)C(O)C1O (stereo not drawn) [Pradimicin A]	> 119	no α-glucosidase inhibitory activity	–	–
CN[C@@H]1[C@H](O[C@@H]2O[C@H](CO)[C@H](O)[C@H](O)[C@@H]2O)[C@@H](O)[C@H](O[C@@H]2c3cc(C)c(C(=O)N[C@H](C)C(=O)O)c(O)c3-c3c(cc4c(c3O)C(=O)c3cc(OC)cc(O)c3C4=O)[C@@H]2O)O[C@H]1C [Pradimicin L]	–	no α-glucosidase inhibitory activity	> 100	–
Cc1cc2c(c(O)c1C(=O)O)-c1c(O)c3c(c(O)c1CC2O)C(=O)c1c(O)cc(O)cc1C3=O (stereo not drawn) [Pradimicin Q, pradimicin Q]	6.46	–	–	75 (≈ 162 µM)

Reference: US5217877A, “Process for the preparation of α-glucosidase inhibitor, pradimicin Q” (Bristol-Myers Squibb Company, priority 1991, dated 1993)
